This passage reports TGI results from PubChem BioAssay (NCI).

Some test systems named below: LOX IMVI melanoma; SNB-19 CNS; OVCAR-4 ovarian; SK-MEL-28 melanoma; HS 578T breast; COLO 205 colon; PC-3 prostate; HCC-2998 colon; 786-0 renal; SK-MEL-2 melanoma; HCT-15 colon; CAKI-1 renal; A498 renal; SNB-75 CNS; RPMI-8226 leukemia; BT-549 breast; NCI-H226 lung; MOLT-4 leukemia; KM12 colon; ACHN renal.
Common to all, as to experiment: NCI tumour cell line growth inhibition, 48 h

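Briefly, cells in 96-well plates were exposed to five compound concentrations for 48 h, and endpoints were estimated by linear interpolation. TGI is the concentration that stops growth completely.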

Regarding `COC(=O)c1ccccc1/C=C1\Cc2ccc(C)c(C)c2C1=O`, the TGI with LOX IMVI melanoma, with SNB-19 CNS, with OVCAR-4 ovarian, in the experiment with SK-MEL-28 melanoma, in the experiment on HS 578T breast and in the experiment with COLO 205 colon was above 100 µM in each case. For the same compound, the TGI in the experiment with PC-3 prostate, with HCC-2998 colon, in the experiment on 786-0 renal, in the experiment on SK-MEL-2 melanoma, with HCT-15 colon and in the experiment on CAKI-1 renal was above 100 µM in each case. In addition, the TGI with A498 renal, in the experiment on SNB-75 CNS, in the experiment with RPMI-8226 leukemia, with BT-549 breast, in the experiment on NCI-H226 lung and with MOLT-4 leukemia was above 100 µM in each case. Moreover, the TGI with KM12 colon and in the experiment on ACHN renal was above 100 µM each time.

`Fc1cc(-c2cc(-c3ccccc3)no2)c(Cl)cc1Cl`: the TGI with LOX IMVI melanoma is above 21.2 µM; in the experiment on SNB-19 CNS, above 62.5 µM; with OVCAR-4 ovarian, above 77.3 µM; with SK-MEL-28 melanoma, above 56.4 µM; in the experiment on HS 578T breast, above 88.9 µM; in the experiment with COLO 205 colon it was above 16.2 µM. For the same compound, the TGI in the experiment with PC-3 prostate was above 50 µM; in the experiment on HCC-2998 colon, above 72 µM; in the experiment on 786-0 renal it was above 33.6 µM; in the experiment with SK-MEL-2 melanoma it was above 40.1 µM; in the experiment on HCT-15 colon, above 68.4 µM; in the experiment with CAKI-1 renal, above 100 µM. Further, the TGI in the experiment on A498 renal was above 54 µM; with SNB-75 CNS it was above 54.4 µM; with RPMI-8226 leukemia, 34 µM; in the experiment with BT-549 breast, 39.8 µM; in the experiment on NCI-H226 lung, above 23.3 µM; with MOLT-4 leukemia it was above 47.8 µM. Further, the TGI in the experiment on KM12 colon is above 58.4 µM; in the experiment on ACHN renal it was above 59.6 µM.

As to `Nc1nc(SC/C=C/c2ccccc2)c2[nH]cnc2n1`, the TGI with LOX IMVI melanoma is above 100 µM; in the experiment on SNB-19 CNS it was above 100 µM; with OVCAR-4 ovarian, above 100 µM; in the experiment on SK-MEL-28 melanoma it was above 100 µM; with HS 578T breast it was 88.8 µM; in the experiment with COLO 205 colon it was above 100 µM. For the same compound, the TGI in the experiment on PC-3 prostate, in the experiment with HCC-2998 colon, in the experiment on 786-0 renal, with SK-MEL-2 melanoma, with HCT-15 colon and in the experiment on CAKI-1 renal was above 100 µM in each case. In addition, the TGI in the experiment on A498 renal, in the experiment on SNB-75 CNS, with RPMI-8226 leukemia, in the experiment on BT-549 breast, with NCI-H226 lung and in the experiment on MOLT-4 leukemia was above 100 µM in each case. Moreover, the TGI with KM12 colon and in the experiment on ACHN renal was above 100 µM in each case.

Turning to `COC(=O)C1=C(C(=O)NNc2ccccc2)N(c2cccnc2Cl)C(c2ccccc2)=CC1c1ccccc1` (stereo not given), the TGI in the experiment on LOX IMVI melanoma, in the experiment with SNB-19 CNS, with OVCAR-4 ovarian, with SK-MEL-28 melanoma, in the experiment with HS 578T breast and in the experiment with COLO 205 colon was above 100 µM throughout. In addition, the TGI in the experiment with PC-3 prostate was above 100 µM; in the experiment on HCC-2998 colon it was above 100 µM; in the experiment with 786-0 renal it was above 100 µM; in the experiment on SK-MEL-2 melanoma, 76.6 µM; with HCT-15 colon, above 100 µM; in the experiment with CAKI-1 renal it was above 100 µM. Also, the TGI in the experiment with A498 renal is above 100 µM; in the experiment on SNB-75 CNS, above 100 µM; with RPMI-8226 leukemia it was 82.8 µM; in the experiment on BT-549 breast, above 100 µM; in the experiment on NCI-H226 lung it was above 100 µM; with MOLT-4 leukemia, 67.2 µM. Besides, the TGI in the experiment with KM12 colon and with ACHN renal was above 100 µM in each case.

As to `CC1CCC(=O)C(C(=O)CC2CC(=O)N(C)C(=O)C2)C1` (stereo not given), the TGI in the experiment with LOX IMVI melanoma, in the experiment with SNB-19 CNS, in the experiment with OVCAR-4 ovarian, in the experiment with SK-MEL-28 melanoma, with HS 578T breast and in the experiment with COLO 205 colon was above 100 µM throughout. Moreover, the TGI in the experiment with PC-3 prostate, in the experiment with HCC-2998 colon, with 786-0 renal, with SK-MEL-2 melanoma, in the experiment with HCT-15 colon and in the experiment with CAKI-1 renal was above 100 µM throughout. Besides, the TGI in the experiment with A498 renal, in the experiment on SNB-75 CNS, in the experiment with RPMI-8226 leukemia, with BT-549 breast, in the experiment on NCI-H226 lung and with MOLT-4 leukemia was above 100 µM throughout. For the same compound, the TGI in the experiment with KM12 colon and in the experiment on ACHN renal was above 100 µM in each case.
